Experimental data taken from ChEMBL document CHEMBL1201862, “PubChem BioAssay data set” (2004).
The source made the active and inactive calls.

How the values were obtained:
[1] = test system: Jurkat; experiment: SAR Analysis of small molecule inhibitors of T-cell specific antigen receptor-induced NF-kB activation in a Jurkat cell line using a luminescence assay - Set 2. [Related pubchem assays (depositor defined):AID435003, AID435012, AID465]; format: functional, cell-based; conditions: Homo sapiens
[2] = test system: HEK293; experiment: HEK293T cell viability loss, resazurin readout – resazurin fluorescence, cytotoxicity control for NF-kB activator project, SAR follow-up (AID 493251); format: functional, cell-based; conditions: Homo sapiens
[3] = test system: HEK293; experiment: SAR Analysis of small molecule inhibitors of T-cell specific antigen receptor-induced NF-kB activation in a HEK-293T cell line using a luminescence assay - Set 2. [Related pubchem assays (depositor defined):AID435003, AID435012, AID489026]; format: functional, cell-based; conditions: Homo sapiens
[4] = test system: H9c2; experiment: cells; format: functional, cell-based; conditions: Rattus norvegicus, H9c2, Myocardium;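 further: confirmatory concentration-response retest of ultra-high-throughput screening hits for modulation of myocardial damage; cell death induced by hydrogen peroxide oxidative stress; compound pretreatment for 60 min then peroxide exposure for 2 h; potency is for protecting the cells against peroxide damage rather than for killing them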
[5] = test system: HEK293; experiment: EBV LMP1 TES2 canonical NF-kB signalling blockers – cell-based, HEK293, luciferase, cherry-pick, dose response (AID 588343); format: functional; conditions: Homo sapiens
[6] = molecular target: Cytochrome P450 2C19 (Homo sapiens, UniProt P33261); experiment: Cytochrome panel assay with activity outcomes. Panel member name: p450-cyp2c19 Compounds with AC50 equal or less than 10 uM are considered active; format: functional
Chain of Cytochrome P450 2C19 (P33261 whole entry): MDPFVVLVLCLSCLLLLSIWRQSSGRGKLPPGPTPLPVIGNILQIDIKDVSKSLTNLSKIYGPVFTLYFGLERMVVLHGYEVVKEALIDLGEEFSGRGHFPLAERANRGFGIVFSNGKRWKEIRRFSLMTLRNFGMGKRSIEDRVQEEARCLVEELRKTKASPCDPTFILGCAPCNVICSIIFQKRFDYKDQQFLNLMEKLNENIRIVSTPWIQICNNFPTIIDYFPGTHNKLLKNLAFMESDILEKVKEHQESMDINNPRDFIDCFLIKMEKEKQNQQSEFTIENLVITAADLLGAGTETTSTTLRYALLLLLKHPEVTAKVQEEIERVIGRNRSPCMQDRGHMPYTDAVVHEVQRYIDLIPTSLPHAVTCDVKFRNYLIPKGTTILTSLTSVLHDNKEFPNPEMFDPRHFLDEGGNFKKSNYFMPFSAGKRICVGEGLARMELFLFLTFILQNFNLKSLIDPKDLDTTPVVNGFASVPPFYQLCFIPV

[7] = molecular target: Cytochrome P450 2D6 (Homo sapiens, UniProt P10635)
Chain of Cytochrome P450 2D6 (P10635 whole entry): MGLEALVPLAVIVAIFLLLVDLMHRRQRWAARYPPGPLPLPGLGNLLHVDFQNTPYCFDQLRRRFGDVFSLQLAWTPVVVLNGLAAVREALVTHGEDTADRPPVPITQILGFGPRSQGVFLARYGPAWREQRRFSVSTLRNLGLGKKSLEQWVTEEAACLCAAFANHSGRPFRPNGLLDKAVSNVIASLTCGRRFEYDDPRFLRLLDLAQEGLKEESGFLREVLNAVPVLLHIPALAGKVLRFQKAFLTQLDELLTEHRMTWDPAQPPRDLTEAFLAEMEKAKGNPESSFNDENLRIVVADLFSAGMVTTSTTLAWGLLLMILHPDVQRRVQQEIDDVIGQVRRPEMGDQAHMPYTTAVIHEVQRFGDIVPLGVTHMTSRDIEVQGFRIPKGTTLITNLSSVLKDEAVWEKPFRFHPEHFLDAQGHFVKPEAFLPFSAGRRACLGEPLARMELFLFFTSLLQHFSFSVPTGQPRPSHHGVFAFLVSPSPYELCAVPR

[8] = molecular target: Lysine-specific demethylase 4A (Homo sapiens, UniProt O75164); experiment: inhibition of JMJD2A H3K9me3 demethylation – biochemical, DELFIA europium, cherry-picked samples, selectivity assay for GASC-1 inhibitor project, dose response (AID 488840)
Chain of Lysine-specific demethylase 4A (O75164 whole entry): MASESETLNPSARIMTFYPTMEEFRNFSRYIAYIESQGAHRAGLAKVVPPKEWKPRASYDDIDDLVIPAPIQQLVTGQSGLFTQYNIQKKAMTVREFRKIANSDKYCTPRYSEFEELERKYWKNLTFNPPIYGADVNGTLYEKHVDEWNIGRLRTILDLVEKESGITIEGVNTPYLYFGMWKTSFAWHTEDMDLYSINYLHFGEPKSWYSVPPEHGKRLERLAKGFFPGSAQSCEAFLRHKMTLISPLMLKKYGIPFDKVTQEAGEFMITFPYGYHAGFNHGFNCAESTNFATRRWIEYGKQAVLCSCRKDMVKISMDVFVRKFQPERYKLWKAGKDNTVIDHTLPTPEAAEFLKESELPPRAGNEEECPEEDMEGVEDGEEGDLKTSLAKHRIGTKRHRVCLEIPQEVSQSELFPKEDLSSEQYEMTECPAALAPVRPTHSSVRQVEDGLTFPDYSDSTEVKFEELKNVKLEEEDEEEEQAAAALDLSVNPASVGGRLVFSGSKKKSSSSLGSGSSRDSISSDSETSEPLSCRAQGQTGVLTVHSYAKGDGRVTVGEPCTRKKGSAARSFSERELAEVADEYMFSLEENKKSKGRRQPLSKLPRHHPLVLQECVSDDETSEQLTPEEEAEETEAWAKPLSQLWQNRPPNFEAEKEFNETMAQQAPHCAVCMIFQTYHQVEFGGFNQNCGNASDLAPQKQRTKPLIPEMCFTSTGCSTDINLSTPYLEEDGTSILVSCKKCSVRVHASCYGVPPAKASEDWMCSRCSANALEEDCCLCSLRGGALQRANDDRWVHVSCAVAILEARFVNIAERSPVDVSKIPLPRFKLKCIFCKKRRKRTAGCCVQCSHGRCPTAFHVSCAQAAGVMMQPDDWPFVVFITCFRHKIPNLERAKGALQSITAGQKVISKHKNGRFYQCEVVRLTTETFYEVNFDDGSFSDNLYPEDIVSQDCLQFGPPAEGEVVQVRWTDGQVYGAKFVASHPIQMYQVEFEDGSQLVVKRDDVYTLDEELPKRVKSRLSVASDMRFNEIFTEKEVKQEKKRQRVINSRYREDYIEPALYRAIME

[9] = molecular target: T1, Dual specificity protein phosphatase 3 (Homo sapiens, UniProt P51452); experiment: VHR1 phosphatase inhibitors, biochemical (AID 1878)
T1 sequence (P51452 whole entry): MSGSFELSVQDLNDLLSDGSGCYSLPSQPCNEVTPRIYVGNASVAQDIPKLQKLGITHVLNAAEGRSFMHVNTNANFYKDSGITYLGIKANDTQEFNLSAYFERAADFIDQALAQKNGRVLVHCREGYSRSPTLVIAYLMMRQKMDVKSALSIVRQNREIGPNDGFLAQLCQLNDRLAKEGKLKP

[10] = molecular target: T2, Dual specificity protein phosphatase 6 (Rattus norvegicus, UniProt Q64346); experiment: inhibition of rat DUSP6 enzyme activity – biochemical, in vitro, primary screen (AID 425)
T2 sequence (Q64346 whole entry): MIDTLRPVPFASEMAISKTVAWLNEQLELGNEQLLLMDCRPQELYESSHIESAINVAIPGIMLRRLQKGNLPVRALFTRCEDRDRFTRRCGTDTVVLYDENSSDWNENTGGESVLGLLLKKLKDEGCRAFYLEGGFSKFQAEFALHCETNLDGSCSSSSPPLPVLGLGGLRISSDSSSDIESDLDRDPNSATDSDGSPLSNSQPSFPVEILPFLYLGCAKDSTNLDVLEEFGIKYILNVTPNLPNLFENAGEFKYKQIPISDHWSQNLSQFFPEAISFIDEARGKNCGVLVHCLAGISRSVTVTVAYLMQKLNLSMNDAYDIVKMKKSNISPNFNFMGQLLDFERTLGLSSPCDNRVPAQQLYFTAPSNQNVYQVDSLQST

[11] = molecular target: T1, Dual specificity protein phosphatase 3; experiment: VHR1 phosphatase inhibitors, primary screen, biochemical, absorbance, uHTS (AID 1654)
[12] = restored growth of temperature-sensitive Burl-1 yeast – whole organism, S. cerevisiae, Burl-1 ts mutant, luminescence, counter-screen for SUMOylation pathway inhibitor project, dose response (AID 463199); format: functional
[13] = molecular target: Sphingosine 1-phosphate receptor 5 (Homo sapiens, UniProt Q9H228); experiment: (§1) Late-stage fluorescence-based dose-response cell-based assay to identify agonists of the Sphingosine 1-Phosphate Receptor 4 (S1P4): Sphingosine 1-Phosphate Receptor 5 (S1P5) counterscreen assay. [Related pubchem assays (depositor defined):AID1509, AID1523, AID1563, AID1686, AID1701, AID1801, AID463107, AID463225, AID504400]; format: functional
Chain of Sphingosine 1-phosphate receptor 5 (Q9H228 whole entry): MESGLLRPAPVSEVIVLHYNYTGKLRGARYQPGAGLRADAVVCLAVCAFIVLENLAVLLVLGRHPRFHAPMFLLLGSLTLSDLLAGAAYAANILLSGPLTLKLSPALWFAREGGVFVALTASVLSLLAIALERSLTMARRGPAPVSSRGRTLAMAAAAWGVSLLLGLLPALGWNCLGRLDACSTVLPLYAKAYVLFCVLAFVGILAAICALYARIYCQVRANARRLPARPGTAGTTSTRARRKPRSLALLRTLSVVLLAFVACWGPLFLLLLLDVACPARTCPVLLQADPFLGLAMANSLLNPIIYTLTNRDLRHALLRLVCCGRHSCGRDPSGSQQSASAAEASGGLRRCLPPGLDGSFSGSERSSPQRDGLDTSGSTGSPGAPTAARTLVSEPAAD

[14] = molecular target: T3, Sphingosine 1-phosphate receptor 1 (Homo sapiens, UniProt P21453); experiment: Fluorescence-based counterscreen assay for S1P4 agonists: Cell-based dose response high throughput screening assay to identify agonists of the Sphingosine 1-Phosphate Receptor 1 (S1P1). [Related pubchem assays (depositor defined):AID1509, AID1523, AID1801, AID463107, AID463118, AID463119, AID463122, AID463123, AID463129, AID463225, AID504400, AID504460]; format: functional
T3 sequence (P21453 whole entry): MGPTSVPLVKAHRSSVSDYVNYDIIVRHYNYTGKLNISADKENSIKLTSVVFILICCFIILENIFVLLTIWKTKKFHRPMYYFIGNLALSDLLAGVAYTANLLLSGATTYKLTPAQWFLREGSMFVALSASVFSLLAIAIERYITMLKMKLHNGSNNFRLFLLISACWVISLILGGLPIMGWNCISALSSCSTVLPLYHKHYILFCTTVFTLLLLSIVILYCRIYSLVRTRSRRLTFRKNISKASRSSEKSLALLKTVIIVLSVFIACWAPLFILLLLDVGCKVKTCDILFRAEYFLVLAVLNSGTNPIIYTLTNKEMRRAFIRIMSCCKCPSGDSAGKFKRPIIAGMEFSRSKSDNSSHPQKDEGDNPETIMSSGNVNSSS

[15] = molecular target: Sphingosine 1-phosphate receptor 3 (Homo sapiens, UniProt Q99500); experiment: as §1, with “3 (S1P3)” for “5 (S1P5)”; format: functional
Chain of Sphingosine 1-phosphate receptor 3 (Q99500 whole entry): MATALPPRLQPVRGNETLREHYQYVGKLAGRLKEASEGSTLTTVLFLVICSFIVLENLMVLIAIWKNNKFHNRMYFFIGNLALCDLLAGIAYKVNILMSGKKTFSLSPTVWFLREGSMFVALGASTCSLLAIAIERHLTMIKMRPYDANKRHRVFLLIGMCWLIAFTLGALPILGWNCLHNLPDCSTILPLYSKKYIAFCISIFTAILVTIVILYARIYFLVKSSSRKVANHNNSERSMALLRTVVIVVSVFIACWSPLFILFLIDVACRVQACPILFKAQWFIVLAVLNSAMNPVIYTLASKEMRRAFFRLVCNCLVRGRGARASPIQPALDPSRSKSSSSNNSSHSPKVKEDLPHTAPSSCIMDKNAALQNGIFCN

[16] = molecular target: Sphingosine 1-phosphate receptor 2 (Homo sapiens, UniProt O95136); experiment: as §1, with “2 (S1P2)” for “5 (S1P5)”; format: functional
Chain of Sphingosine 1-phosphate receptor 2 (O95136 whole entry): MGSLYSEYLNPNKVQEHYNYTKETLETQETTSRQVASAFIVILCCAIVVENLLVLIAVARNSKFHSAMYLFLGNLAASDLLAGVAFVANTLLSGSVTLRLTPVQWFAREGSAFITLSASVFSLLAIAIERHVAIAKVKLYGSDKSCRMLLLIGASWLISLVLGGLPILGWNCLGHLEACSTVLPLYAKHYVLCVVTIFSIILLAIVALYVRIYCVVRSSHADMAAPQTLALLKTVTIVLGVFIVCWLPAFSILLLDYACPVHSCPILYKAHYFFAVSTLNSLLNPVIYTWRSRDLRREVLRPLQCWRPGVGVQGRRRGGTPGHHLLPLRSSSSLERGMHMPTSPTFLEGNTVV

[17] = molecular target: T3, Sphingosine 1-phosphate receptor 1; experiment: as §1, with “1 (S1P1)” for “5 (S1P5)”; format: functional
[18] = molecular target: Sphingosine 1-phosphate receptor 4 (Homo sapiens, UniProt O95977); experiment: Fluorescence dose response cell-based high throughput screening assay for agonists of the Sphingosine 1-Phosphate Receptor 4 (S1P4). [Related pubchem assays: 1509 (Primary screen.), 1523 (Confirmation screen in triplicates.)]; format: functional
Chain of Sphingosine 1-phosphate receptor 4 (O95977 whole entry): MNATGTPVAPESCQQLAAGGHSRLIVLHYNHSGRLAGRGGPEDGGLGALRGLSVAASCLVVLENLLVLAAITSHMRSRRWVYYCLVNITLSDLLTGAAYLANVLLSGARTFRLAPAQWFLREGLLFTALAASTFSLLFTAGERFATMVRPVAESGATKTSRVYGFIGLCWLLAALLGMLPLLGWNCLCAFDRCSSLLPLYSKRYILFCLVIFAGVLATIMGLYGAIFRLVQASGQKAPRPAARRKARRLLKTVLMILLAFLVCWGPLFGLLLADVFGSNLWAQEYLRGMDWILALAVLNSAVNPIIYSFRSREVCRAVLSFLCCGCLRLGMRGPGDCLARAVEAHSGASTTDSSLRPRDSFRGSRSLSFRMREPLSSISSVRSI

[19] = general cell-killing toxicity readout – plate reader, dry powder samples, cytotoxicity control for PAX8 inhibitor project, dose response (AID 743021); format: functional, cell-based
[20] = A549 cell cytotoxicity, dose response, cytotoxicity control, plate reader, cherry-pick, antagonist series (AID 743412); format: functional, cell-based
[21] = viability loss in HEK293 cells – cell-based, plate reader, cherry-picked samples, cytotoxicity control, dose response (AID 743446); format: functional
[22] = toxicity toward HepG2 liver cells – cell-based, plate reader, cherry-pick, antagonist series, cytotoxicity control, dose response (AID 743416); format: functional
[23] = test system: Jurkat; experiment: blockers of NF-kB activation in T cells – Jurkat, luciferase reporter, luminescence, B- and T-cell, dose response (AID 489004); format: functional, cell-based; conditions: Homo sapiens;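 further: NF-kB luciferase reporter Jurkat cells stimulated with PMA plus ionomycin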
[24] = blockade of melanocortin 4 receptor signaling – cell-based, plate reader, cherry pick, counter-screen for LGR2 antagonist project, dose response (AID 743444); format: functional;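 further: transfected HEK 293 cells stimulated with alpha-MSH peptide; potency of inhibitors of the alpha-MSH evoked signal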
[25] = molecular target: T4, Microphthalmia-associated transcription factor (Homo sapiens, UniProt O75030); experiment: reducers of TRPM1 reporter luminescence, concentration series – cell-based, SK-MEL-5, cherry-picked, set 3, MITF inhibitor project, dose response (AID 493073); format: functional;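 further: SK-MEL-5 melanoma cells with luciferase driven by the MITF target TRPM1 promoter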
T4 sequence (O75030 whole entry): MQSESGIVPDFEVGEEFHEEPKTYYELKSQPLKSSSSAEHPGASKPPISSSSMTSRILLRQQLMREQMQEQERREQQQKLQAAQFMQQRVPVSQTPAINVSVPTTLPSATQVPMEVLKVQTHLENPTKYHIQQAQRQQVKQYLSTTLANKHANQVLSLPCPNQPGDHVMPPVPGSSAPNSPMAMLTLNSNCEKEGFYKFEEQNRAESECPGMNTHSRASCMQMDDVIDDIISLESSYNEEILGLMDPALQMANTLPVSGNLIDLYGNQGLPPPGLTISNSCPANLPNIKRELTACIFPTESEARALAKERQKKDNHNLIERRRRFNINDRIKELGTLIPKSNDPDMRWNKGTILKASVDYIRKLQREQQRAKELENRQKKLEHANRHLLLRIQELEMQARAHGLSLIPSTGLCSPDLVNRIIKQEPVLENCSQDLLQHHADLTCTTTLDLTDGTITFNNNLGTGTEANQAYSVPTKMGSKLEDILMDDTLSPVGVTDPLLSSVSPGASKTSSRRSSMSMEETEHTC

[26] = blockers of bursicon-stimulated LGR2 cAMP reporter – cell-based, HEK293, CRE-luciferase reporter, cherry pick, set 2, dose response (AID 743343); format: functional;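 further: transfected cells were stimulated with diluted bursicon conditioned medium after compound addition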
[27] = molecular target: Paired box protein Pax-8 (Homo sapiens, UniProt Q06710); experiment: PAX8 transcriptional activity inhibition in RMG-I – RMG-I cells, luciferase, cherry-pick, dose response (AID 687027); format: functional, cell-based;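 further: luciferase reporter driven by Pax8 target thyroperoxidase promoter measured by SteadyGlo luminescence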
Chain of Paired box protein Pax-8 (Q06710 whole entry): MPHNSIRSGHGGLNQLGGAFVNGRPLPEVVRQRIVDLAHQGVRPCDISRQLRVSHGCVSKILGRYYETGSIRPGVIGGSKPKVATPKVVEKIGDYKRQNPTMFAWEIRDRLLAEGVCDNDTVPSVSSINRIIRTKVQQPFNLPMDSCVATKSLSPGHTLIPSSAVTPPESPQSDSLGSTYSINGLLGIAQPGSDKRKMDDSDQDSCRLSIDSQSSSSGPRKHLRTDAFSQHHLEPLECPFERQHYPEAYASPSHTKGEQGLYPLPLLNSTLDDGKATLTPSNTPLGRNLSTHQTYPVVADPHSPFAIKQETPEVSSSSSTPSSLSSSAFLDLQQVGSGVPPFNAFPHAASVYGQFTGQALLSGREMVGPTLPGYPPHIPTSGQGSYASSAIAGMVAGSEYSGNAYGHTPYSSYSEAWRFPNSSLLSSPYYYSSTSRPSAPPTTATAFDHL

[28] = HEK-293T viability loss, compound-treated – cell-based, uHTS hits, cytotoxicity control for B/T-cell NF-kB inhibitor project, dose response (AID 489019); format: functional;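 further: IC50 reflects cytotoxicity as loss of cell viability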

## CC(=O)c1cccc(NC(=O)c2ccc([N+](=O)[O-])o2)c1
[1]
  IC50: 27.6 µM (inactive)
[2]
  IC50: 69.3 µM (inactive)
[3]
  IC50: 37.1 µM (inactive)

## CCn1nc(C(=O)Nc2nc(-c3ccccn3)cs2)c2ccccc2c1=O
[4]
  IC50: 16.2 µM (active)
[5]
  AC50: 11.4 µM (active)

## CC1=C(C(=O)O)N2C(=O)[C@@H](NC(=O)[C@@H](N)C3=CCC=CC3)[C@@H]2SC1
[6]
  AC50: inconclusive
[7]
  AC50: inconclusive

## CN(C(=O)c1ccc(NC(=O)Cc2ccc(NC(=O)C3CCN(C(=O)C4CCC4)CC3)cc2)cc1)C1CC1
[8]
  AC50: > 60 µM (inactive)

## O=C(O)c1cc(-c2ccc(/C=c3\sc4nc5ccc(Br)cc5n4c3=O)o2)ccc1Cl
[9]
  IC50: 1.42 µM (active)
[10]
  IC50: 12 µM (active)
[11]
  IC50: 3.97 µM (active)

## CCCCn1c(/N=C/c2ccc3c(c2)OCO3)nc2ccccc21
[12]
  AC50: 60 µM (active)

## Cc1ccc(OCCOc2ccc(Cl)cc2Cl)c([N+](=O)[O-])n1
[13]
  EC50: > 50 µM (inactive)
[14]
  EC50: > 49.8 µM (inactive)
[15]
  EC50: > 50 µM (inactive)
[16]
  EC50: > 50 µM (inactive)
[17]
  EC50: > 50 µM (inactive)
[18]
  EC50: 0.529 µM (active)

## CCOc1ccc(NC(=O)Nc2cccc(C(=O)O)c2)cc1
[19]
  AC50: 11.7 µM (active)
[20]
  AC50: 45.1 µM (active)
[21]
  AC50: 40.4 µM (active)
[22]
  AC50: > 52 µM (inactive)
[23]
  IC50: 0.85 µM (active)
[24]
  AC50: 0.319 µM (active)
[25]
  AC50: 1.53 µM (active)
[26]
  AC50: 0.303 µM (active)
[27]
  AC50: 3.85 µM (active)
[28]
  IC50: > 80 µM (inactive)
